Measured values as given in the OPERA property sets (Mansouri et al. 2018).

Q: Which logP does the source give for `COCCOCCOc1ccc(OCCOCCOC)cc1` here?
A: The logP was 0.76.

Q: Which logP does the source give for `c1ccc2c(c1)OCCOCCOCCOCCO2` here?
A: Its logP is 0.91.

Q: Which logP does the source give for `c1ccc2c(c1)OCCOCCOCCOCCOCCOCCOCCOCCOCCO2` here?
A: Its logP is 0.03.

Q: Which logP does the source give for `c1ccc2c(c1)OCCOCCOCCOCCOc1ccccc1OCCOCCOCCOCCO2` here?
A: The logP was 1.8.

Q: For `c1ccc2c(c1)OCCOCCOCCOCCOCCOCCOc1ccccc1OCCO2`, which logP is on record?
A: Its logP is 1.63.

Q: Which logP does the source give for `c1ccc2c(c1)OCCOCCOCCOCCOCCOCCO2` here?
A: The logP was 0.57.

Q: Which logP does the source give for `c1ccc2c(c1)OCCOCCOCCOCCOCCOCCOCCOc1ccccc1OCCO2` here?
A: The logP was 1.82.

Q: With `c1ccc2c(c1)OCCOCCOCCOCCOCCOCCOc1ccccc1OCCOCCOCCO2` as the compound, how does the logP read?
A: Its logP is 1.45.

Q: With `c1ccc2c(c1)OCCOCCOCCOCCOCCOCCOCCO2` as the compound, how does the logP read?
A: The logP was 0.45.

Q: Which logP does the source give for `c1ccc2c(c1)OCCOCCOCCOc1ccccc1OCCOCCOCCO2` here?
A: Its logP is 2.11.

Q: With `c1ccc2c(c1)OCCOCCOCCOCCOCCO2` as the compound, how does the logP read?
A: Its logP is 0.58.

Q: Which logP does the source give for `c1ccc2c(c1)OCCOCCOCCOCCOCCOCCOCCOc1ccccc1OCCOCCOCCOCCOCCOCCOCCO2` here?
A: The logP was 0.52.

Q: With `COCCOCCOc1cccc(OCCOCCOC)c1` as the compound, how does the logP read?
A: The logP was 0.86.

Q: For `c1ccc2c(c1)OCCOCCOc1ccccc1OCCOCCO2`, which logP is on record?
A: The logP was 2.2.

Q: With `COCCOCCOc1ccccc1OCCOCCOC` as the compound, how does the logP read?
A: Its logP is 0.76.

Q: Which logP does the source give for `COCCOCCOCCOc1ccccc1OCCOCCOCCOC` here?
A: The logP was 0.38.

Q: Which logP does the source give for `c1ccc2c(c1)OCCOCCOCCOCCOCCOCCOCCOCCOCCOCCO2` here?
A: Its logP is -0.09.
